System: patients after acute myocardial infarction
Assay: Life quality, Seattle Angina Questionnaire (SAQ), same clinical trial
Type: in vivo, human
Details: FAS
Description: 3508 patients who were in accordance with the diagnostic standards of AMI for 28 days to 2 years and differentiated as Qi deficiency and blood stagnation syndrome by TCM were studied. 0.5 g Chinese medicine composition prepared by the method of EXAMPLE 1 (Coded as QSYQ) was administrated half an hour after meal, 3 times per day.
There were 19 questions in the Seattle angina questionnaire (SAQ), including 5 parts: physical limitation (PL), anginal stability (AS), anginal frequency (AF), treatment satisfaction (TS) and disease perception (DP). After being given necessary explanation by doctors, the questions were answered independently by patients.
They included the overall survival time, angina pectoris score, TCM symptom score and life quality score, where angina pectoris score, TCM symptom score and life quality score were evaluated at randomization, in 1st, 3rd, 6th, 9th, 12th month after treatment and 18th month after follow-up.
All evaluation results of SAQ were described during the period of observation, and Wilcoxon rank sum test was used for inter-group comparison.
The evaluation results in the SAQ were depicted in different observations, and inter-group comparison was tested by Wilcoxon Rank-sum test.

CC(=O)Oc1ccccc1C(=O)O [Control group, aspirine]
10th question: Mostly satisfied, patients (%) (Baseline): (16.89%)
10th question: Partly satisfied, patients (%) (Baseline): (31.19%)
11th question: Continuously worried, patients (%) (Baseline): (9.59%)
11th question: No worried, patients (%) (Baseline): (4.13%)
11th question: Occasionally worried, patients (%) (Baseline): (40.93%)
11th question: Often worried, patients (%) (Baseline): (23.88%)
11th question: Seldom worried, patients (%) (Baseline): (21.47%)
SAQ 4th question, 1-2 times per week: % of patients (Baseline): (19.80%)
SAQ 4th question, 1-2 times per week: number of patients (Baseline): 344
SAQ 4th question, 1-3 times per day: % of patients (Baseline): (8.64%)
SAQ 4th question, 1-3 times per day: number of patients (Baseline): 150
SAQ 4th question, <1 time per week: % of patients (Baseline): (10.13%)
SAQ 4th question, <1 time per week: number of patients (Baseline): 176
SAQ 4th question, Not used: % of patients (Baseline): (43.64%)
SAQ 4th question, Not used: number of patients (Baseline): 758
SAQ 4th question, ≧3 times per week: % of patients (Baseline): (16.87%)
SAQ 4th question, ≧3 times per week: number of patients (Baseline): 293
SAQ 4th question, ≧4 times per day: % of patients (Baseline): (0.92%)
SAQ 4th question, ≧4 times per day: number of patients (Baseline): 16
SAQ 5th question, Few: % of patients (Baseline): (18.88%)
SAQ 5th question, Few: number of patients (Baseline): 328
SAQ 5th question, Mild: % of patients (Baseline): (30.74%)
SAQ 5th question, Mild: number of patients (Baseline): 534
SAQ 5th question, Moderate: % of patients (Baseline): (20.50%)
SAQ 5th question, Moderate: number of patients (Baseline): 356
SAQ 5th question, None: % of patients (Baseline): (23.43%)
SAQ 5th question, None: number of patients (Baseline): 407
SAQ 5th question, Not medicated by doctors: % of patients (Baseline): (2.99%)
SAQ 5th question, Not medicated by doctors: number of patients (Baseline): 52
SAQ 5th question, Severe: % of patients (Baseline): (3.45%)
SAQ 5th question, Severe: number of patients (Baseline): 60
SAQ 6th question, Dissatisfied: % of patients (Baseline): (1.15%)
SAQ 6th question, Dissatisfied: number of patients (Baseline): 20
SAQ 6th question, Highly satisfied: % of patients (Baseline): (15.33%)
SAQ 6th question, Highly satisfied: number of patients (Baseline): 267
SAQ 6th question, Mostly dissatisfied: % of patients (Baseline): (6.54%)
SAQ 6th question, Mostly dissatisfied: number of patients (Baseline): 114
SAQ 6th question, Mostly satisfied: % of patients (Baseline): (45.52%)
SAQ 6th question, Mostly satisfied: number of patients (Baseline): 793
SAQ 6th question, Partly satisfied: % of patients (Baseline): (31.46%)
SAQ 6th question, Partly satisfied: number of patients (Baseline): 548
SAQ 7th question, Dissatisfied: % of patients (Baseline): (0.40%)
SAQ 7th question, Dissatisfied: number of patients (Baseline): 7
SAQ 7th question, Highly satisfied: % of patients (Baseline): (20.40%)
SAQ 7th question, Highly satisfied: number of patients (Baseline): 355
SAQ 7th question, Mostly dissatisfied: % of patients (Baseline): (4.60%)
SAQ 7th question, Mostly dissatisfied: number of patients (Baseline): 80
SAQ 7th question, Mostly satisfied: % of patients (Baseline): (47.99%)
SAQ 7th question, Mostly satisfied: number of patients (Baseline): 835
SAQ 7th question, Partly satisfied: % of patients (Baseline): (26.61%)
SAQ 7th question, Partly satisfied: number of patients (Baseline): 463
SAQ Question 1-1 Mildly limited, number of patients (Baseline): 34
SAQ Question 1-1 Mildly limited, percent of patients (Baseline): (1.95%)
SAQ Question 1-1 Moderately limited, number of patients (Baseline): 16
SAQ Question 1-1 Moderately limited, percent of patients (Baseline): (0.92%)
SAQ Question 1-1 Not limited, number of patients (Baseline): 1582
SAQ Question 1-1 Not limited, percent of patients (Baseline): (90.92%)
SAQ Question 1-1 Other reasons, number of patients (Baseline): 5
SAQ Question 1-1 Other reasons, percent of patients (Baseline): (0.29%)
SAQ Question 1-1 Severely limited, number of patients (Baseline): 1
SAQ Question 1-1 Severely limited, percent of patients (Baseline): (0.06%)
SAQ Question 1-1 Slightly limited, number of patients (Baseline): 102
SAQ Question 1-1 Slightly limited, percent of patients (Baseline): (5.86%)
SAQ Question 1-2 Mildly limited, number of patients (Baseline): 46
SAQ Question 1-2 Mildly limited, percent of patients (Baseline): (2.64%)
SAQ Question 1-2 Moderately limited, number of patients (Baseline): 18
SAQ Question 1-2 Moderately limited, percent of patients (Baseline): (1.03%)
SAQ Question 1-2 Not limited, number of patients (Baseline): 1539
SAQ Question 1-2 Not limited, percent of patients (Baseline): (88.45%)
SAQ Question 1-2 Other reasons, number of patients (Baseline): 6
SAQ Question 1-2 Other reasons, percent of patients (Baseline): (0.34%)
SAQ Question 1-2 Severely limited, number of patients (Baseline): 2
SAQ Question 1-2 Severely limited, percent of patients (Baseline): (0.11%)
SAQ Question 1-2 Slightly limited, number of patients (Baseline): 129
SAQ Question 1-2 Slightly limited, percent of patients (Baseline): (7.41%)
SAQ Question 1-6: Mildly limited, patients (%) (Baseline): (20.89%)
SAQ Question 1-6: Moderately limited, patients (%) (Baseline): (17.95%)
SAQ Question 1-6: Not limited, patients (%) (Baseline): (25.85%)
SAQ Question 1-6: Other reasons, patients (%) (Baseline): (0.92%)
SAQ Question 1-6: Severely limited, patients (%) (Baseline): (6.75%)
SAQ Question 1-6: Slightly limited, patients (%) (Baseline): (27.64%)
SAQ Question 1-7: Mildly limited, patients (%) (Baseline): (24.74%)
SAQ Question 1-7: Moderately limited, patients (%) (Baseline): (19.42%)
SAQ Question 1-7: Not limited, patients (%) (Baseline): (10.64%)
SAQ Question 1-7: Other reasons, patients (%) (Baseline): (2.81%)
SAQ Question 1-7: Severely limited, patients (%) (Baseline): (20.94%)
SAQ Question 1-7: Slightly limited, patients (%) (Baseline): (21.46%)
SAQ Question 1-8: Mildly limited, patients (%) (Baseline): (23.63%)
SAQ Question 1-8: Moderately limited, patients (%) (Baseline): (22.57%)
SAQ Question 1-8: Not limited, patients (%) (Baseline): (8.07%)
SAQ Question 1-8: Other reasons, patients (%) (Baseline): (2.40%)
SAQ Question 1-8: Severely limited, patients (%) (Baseline): (25.96%)
SAQ Question 1-8: Slightly limited, patients (%) (Baseline): (17.37%)
8th question: Dissatisfied, patients (%) (Follow-up): (0.07%)
8th question: Highly satisfied, patients (%) (Follow-up): (28.03%)
8th question: Mostly dissatisfied, patients (%) (Follow-up): (0.62%)
8th question: Mostly satisfied, patients (%) (Follow-up): (60.61%)
8th question: Partly satisfied, patients (%) (Follow-up): (10.67%)
9th question: Few, patients (%) (Follow-up): (44.26%)
9th question: Mild, patients (%) (Follow-up): (27.29%)
9th question: Moderate, patients (%) (Follow-up): (3.78%)
9th question: Severe, patients (%) (Follow-up): (0.14%)
9th question: Uneffective, patients (%) (Follow-up): (24.54%)
10th question: Dissatisfied, patients (%) (Follow-up): (18.50%)
10th question: Highly satisfied, patients (%) (Follow-up): (9.56%)
10th question: Mostly dissatisfied, patients (%) (Follow-up): (19.05%)
10th question: Mostly satisfied, patients (%) (Follow-up): (32.12%)
10th question: Partly satisfied, patients (%) (Follow-up): (20.77%)
11th question: Continuously worried, patients (%) (Follow-up): (1.38%)
11th question: No worried, patients (%) (Follow-up): (8.80%)
11th question: Occasionally worried, patients (%) (Follow-up): (38.93%)
11th question: Often worried, patients (%) (Follow-up): (6.74%)
11th question: Seldom worried, patients (%) (Follow-up): (44.15%)
SAQ 4th question, 1-2 times per week: % of patients (Follow-up): (13.28%)
SAQ 4th question, 1-2 times per week: number of patients (Follow-up): 192
SAQ 4th question, 1-3 times per week: % of patients (Follow-up): (2.84%)
SAQ 4th question, 1-3 times per week: number of patients (Follow-up): 41
SAQ 4th question, <1 time per week: % of patients (Follow-up): (16.04%)
SAQ 4th question, <1 time per week: number of patients (Follow-up): 232
SAQ 4th question, Not used: % of patients (Follow-up): (66.04%)
SAQ 4th question, Not used: number of patients (Follow-up): 955
SAQ 4th question, ≧3 times per week: % of patients (Follow-up): (1.80%)
SAQ 4th question, ≧3 times per week: number of patients (Follow-up): 26
SAQ 4th question, ≧4 times per day: % of patients (Follow-up): (0.00%)
SAQ 4th question, ≧4 times per day: number of patients (Follow-up): 0
SAQ 5th question, 1-2 times per week: % of patients (Follow-up): (32.97%)
SAQ 5th question, 1-2 times per week: number of patients (Follow-up): 478
SAQ 5th question, 1-3 times per day: % of patients (Follow-up): (3.17%)
SAQ 5th question, 1-3 times per day: number of patients (Follow-up): 46
SAQ 5th question, <1 time per week: % of patients (Follow-up): (31.17%)
SAQ 5th question, <1 time per week: number of patients (Follow-up): 452
SAQ 5th question, No onset: % of patients (Follow-up): (7.52%)
SAQ 5th question, No onset: number of patients (Follow-up): 109
SAQ 5th question, ≧3 times per week: % of patients (Follow-up): (25.03%)
SAQ 5th question, ≧3 times per week: number of patients (Follow-up): 363
SAQ 5th question, ≧4 times per day: % of patients (Follow-up): (0.14%)
SAQ 5th question, ≧4 times per day: number of patients (Follow-up): 2
SAQ 6th question, Dissatisfied: % of patients (Follow-up): (0.00%)
SAQ 6th question, Dissatisfied: number of patients (Follow-up): 0
SAQ 6th question, Highly satisfied: % of patients (Follow-up): (28.18%)
SAQ 6th question, Highly satisfied: number of patients (Follow-up): 410
SAQ 6th question, Mostly dissatisfied: % of patients (Follow-up): (0.62%)
SAQ 6th question, Mostly dissatisfied: number of patients (Follow-up): 9
SAQ 6th question, Mostly satisfied: % of patients (Follow-up): (62.75%)
SAQ 6th question, Mostly satisfied: number of patients (Follow-up): 913
SAQ 6th question, Partly satisfied: % of patients (Follow-up): (8.45%)
SAQ 6th question, Partly satisfied: number of patients (Follow-up): 123
SAQ 7th question, Dissatisfied: % of patients (Follow-up): (0.00%)
SAQ 7th question, Dissatisfied: number of patients (Follow-up): 0
SAQ 7th question, Highly satisfied: % of patients (Follow-up): (30.56%)
SAQ 7th question, Highly satisfied: number of patients (Follow-up): 444
SAQ 7th question, Mostly dissatisfied: % of patients (Follow-up): (0.28%)
SAQ 7th question, Mostly dissatisfied: number of patients (Follow-up): 4
SAQ 7th question, Mostly satisfied: % of patients (Follow-up): (62.49%)

Source: patent publication US9211310B2, “Use of a Chinese medicine composition in preparing medicaments for treating secondary prevention of myocardial infarction” (TASLY PHARMACEUTICAL GROUP CO., LTD, priority 2010, dated 2015)
